Laboratory results as given in EP0994871B1, “NOVEL SUBSTITUTED NAPHTHOPYRANS” (TRANSITIONS OPTICAL, INC., priority 1997, dated 1998).

Tests used:
[1] = Photochromic response of polymeric test squares on an optical bench; format: physicochemical; conditions: for ΔOD@ SATURATION: UV exposure continued for 20 minutes; for ΔOD@ SATURATION / ΔOD/MIN SENSITIVITY: test squares, 75°F (23.9°C); for ΔOD/MIN SENSITIVITY: measured over the first five (5) seconds of UV exposure, expressed on a per minute basis; for Bleach (T1/2): time for absorbance of the activated form in the test squares to reach one half the highest absorbance at room temperature (75°F, 23.9°C) after removal of activating light
Description: Testing was done with the photochromic naphthopyrans of the Examples incorporated into polymeric samples by the following method. The quantity of naphthopyran calculated to yield a 1.5 times 10^-3 molal solution was added to a flask containing 50 grams of a monomer blend of 4 parts ethoxylated bisphenol A dimethacrylate (BPA 2EO DMA), 1 part poly(ethylene glycol) 600 dimethacrylate, and 0.033 weight percent 2,2'-azobis(2-methyl propionitrile) (AIBN). The naphthopyran was dissolved into the monomer blend by stirring and gentle heating, if necessary. After a clear solution was obtained, it was poured into a flat sheet mold having the interior dimensions of 2.2 mm x 6 inches (15.24 cm) x 6 inches (15.24 cm). The mold was sealed and placed in a horizontal air flow, programmable oven set to increase the temperature from 40°C. to 95°C. over a 5 hour interval, hold the temperature at 95°C. for 3 hours and then lower it to 60°C. for at least 2 hours before the end of the curing cycle. After the mold was opened, the polymer sheet was cut using a diamond blade saw into 2 inch (5.1 centimeters) test squares.
The photochromic test squares prepared in Part A were tested for photochromic response rates on an optical bench. Prior to testing on the optical bench, the photochromic test squares were exposed to 365 nanometer ultraviolet light for about 15 minutes to activate the photochromic compounds and then placed into a 76°C oven for about 15 minutes to bleach or inactivate the photochromic compounds. The test squares were then cooled to room temperature, exposed to fluorescent room lighting for at least 2 hours and then kept covered for at least 2 hours prior to testing on an optical bench maintained at 75°F (23.9°C). The bench was fitted with a 150 watt Xenon arc lamp, a remote controlled shutter, a copper sulfate bath acting as a heat sink for the arc lamp, a Schott WG-320 nm cut-off filter which removes short wavelength radiation; neutral density filter(s) and a sample holder in which the square to be tested was inserted. A collimated beam of light from a tungsten lamp was passed through the square at a small angle normal to the square. After passing through the square, the light from the tungsten lamp was directed through a photopic filter attached to a detector. The photopic filter passes wavelengths such that the detector mimics the response of the human eye. The output signals from the detector(s) were processed by a radiometer.
Change in optical density (ΔOD) was determined by inserting a test square in the bleached state into the sample holder, adjusting the transmittance scale to 100%, opening the shutter from the Xenon lamp to provide ultraviolet radiation to change the test square from the bleached state to an activated (i.e., darkened) state, measuring the transmittance in the activated state, and calculating the change in optical density according to the formula A OD=log(100/%Ta) where %Ta is the percent transmittance in the activated state and the logarithm is to the base 10.
(§1) The Δ OD/Min, which represents the sensitivity of the photochromic compound's response to UV light, was measured over the first five (5) seconds of UV exposure, then expressed on a per minute basis. The saturation optical density (OD) was taken under identical conditions as the A OD/Min, except UV exposure was continued for 20 minutes for the examples in Table 1. The lambda max reported in Table 1 is the wavelength in the visible spectrum at which the maximum absorption of the activated (colored) form of the photochromic compound in a diethylene glycol bis(allyl carbonate) composition occurs. The Bleach Rate (T 1/2) is the time interval in seconds for the absorbance of the activated form of the naphthopyran in the test squares to reach one half the highest absorbance at room temperature (75°F, 23.9°C) after removal of the source of activating light.

[2] = Lambda max of the activated (colored) form in a diethylene glycol bis(allyl carbonate) composition; format: physicochemical; conditions: wavelength in the visible spectrum of maximum absorption of the activated (colored) form in a diethylene glycol bis(allyl carbonate) composition
Description: as §1

Q: Which results are given for `COc1ccc(C2(c3ccc(OC)cc3)C=Cc3c(-c4cccn4C)c(OC(C)=O)c4ccccc4c3O2)cc1` [Example 1, 2,2-bis(4-methoxyphenyl)-5-(N-methylpyrrol-2-yl)-6-acetoxy-2H-naphtho[1,2-b]pyran]?
A: ΔOD@ SATURATION [1]: 0.25; ΔOD/MIN SENSITIVITY [1]: 0.16; Bleach (T1/2) [1]: 1.23 min; LAMBDA MAX (VISIBLE) [2]: 513 nm

Q: Which results are given for `COc1ccc(C2(c3ccc(OC)cc3)C=Cc3c(-c4ccc(OC)cc4OC)c(OC(C)=O)c4ccccc4c3O2)cc1` [Example 2, 2,2-bis(4-methoxyphenyl)-5-(2,4-dimethoxyphenyl)-6-acetoxy-2H-naphtho[1,2-b]pyran]?
A: ΔOD@ SATURATION [1]: 0.55; ΔOD/MIN SENSITIVITY [1]: 0.15; Bleach (T1/2) [1]: 4.13 min; LAMBDA MAX (VISIBLE) [2]: 511 nm

Q: Which “ΔOD@ SATURATION” value [1] does the source give for `COc1ccc(C2(c3ccc(OC)cc3)C=Cc3c(Sc4ccccc4)c(O)c4ccccc4c3O2)cc1` [Example 3, 2,2-bis(4-methoxyphenyl)-5-phenylthio-6-hydroxy-2H-naphtho[1,2-b]pyran] here?
A: The value was 1.76.

Q: And the “ΔOD/MIN SENSITIVITY” value [1]?
A: Its value is 0.34.

Q: What about the “Bleach (T1/2)” value [1] of the same compound?
A: The value was greater than 10 min.

Q: And the “LAMBDA MAX (VISIBLE)” value [2]?
A: Its value is 516 nm.

Q: For `COc1ccc(C2(c3ccc(OC)cc3)C=Cc3c(Sc4ccccc4)c(OC(C)=O)c4ccccc4c3O2)cc1` [Example 4, 2,2-bis(4-methoxyphenyl)-5-phenylthio-6-acetoxy-2H-naphtho[1,2-b]pyran], which “ΔOD@ SATURATION” value [1] is on record?
A: Its value is 0.23.

Q: And the “ΔOD/MIN SENSITIVITY” value [1]?
A: The value was 0.22.

Q: And the “Bleach (T1/2)” value [1]?
A: The value was 0.7 min.

Q: What about the “LAMBDA MAX (VISIBLE)” value [2] of the same compound?
A: The value was 516 nm.

Q: Which “ΔOD@ SATURATION” value [1] does the source give for `COc1ccc(C2(c3ccc(OC)cc3)C=Cc3c(Cl)c(OC(C)=O)c4ccccc4c3O2)cc1` [Example 5, 2,2-bis(4-methoxyphenyl)-5-chloro-6-acetoxy-2H-naphtho[1,2-b]pyran] here?
A: The value was 0.07.

Q: And the “ΔOD/MIN SENSITIVITY” value [1]?
A: The value was 0.08.

Q: And the “Bleach (T1/2)” value [1]?
A: The value was 0.9 min.

Q: What about the “LAMBDA MAX (VISIBLE)” value [2] of the same compound?
A: The value was 462 nm.

Q: For `COc1ccc(C2(c3ccc(OC)cc3)C=Cc3c(C)c(OC(C)=O)c4ccccc4c3O2)cc1` [Example 6, 2,2-bis(4-methoxyphenyl)-5-methyl-6-acetoxy-2H-naphtho[1,2-b]pyran], which “ΔOD@ SATURATION” value [1] is on record?
A: The value was 0.37.

Q: And the “ΔOD/MIN SENSITIVITY” value [1]?
A: Its value is 0.14.

Q: And the “Bleach (T1/2)” value [1]?
A: Its value is 2 min.

Q: And the “LAMBDA MAX (VISIBLE)” value [2]?
A: The value was 506 nm.

Q: Which “ΔOD@ SATURATION” value [1] does the source give for `Oc1c(Sc2ccccc2)c2c(c3ccccc13)OC1(C=C2)C2CC3CC(C2)CC1C3` (stereo not drawn) [Example 7, 2,2'-spiroadamantylene-5-phenylthio-6-hydroxy-2H-naphtho[1,2-b]pyran] here?
A: Its value is 0.47.

Q: What about the “ΔOD/MIN SENSITIVITY” value [1] of the same compound?
A: Its value is 0.15.

Q: And the “LAMBDA MAX (VISIBLE)” value [2]?
A: The value was 462 nm.

Q: For `CC(=O)Oc1c(Sc2ccccc2)c2c(c3ccccc13)OC1(C=C2)C2CC3CC(C2)CC1C3` (stereo not drawn) [Example 8, 2,2'-spiroadamantylene-5-phenylthio-6-acetoxy-2H-naphtho[1,2-b]pyran], which “ΔOD@ SATURATION” value [1] is on record?
A: The value was 0.04.

Q: What about the “ΔOD/MIN SENSITIVITY” value [1] of the same compound?
A: The value was 0.10.

Q: What about the “LAMBDA MAX (VISIBLE)” value [2] of the same compound?
A: The value was 459 nm.

Q: Which “ΔOD@ SATURATION” value [1] does the source give for `COc1c(C)c2c(c3ccccc13)OC1(C=C2)C2CC3CC(C2)CC1C3` (stereo not drawn) [Example 9, 2,2'-spiroadamantylene-5-methyl-6-methoxy-2H-naphtho[1,2-b]pyran] here?
A: Its value is 0.17.

Q: And the “ΔOD/MIN SENSITIVITY” value [1]?
A: The value was 0.12.

Q: What about the “LAMBDA MAX (VISIBLE)” value [2] of the same compound?
A: Its value is 462 nm.

Q: With `COc1ccc(C2(c3ccc(OC)cc3)C=Cc3c(C(O)(c4ccccc4)c4ccccc4)c(O)c4ccccc4c3O2)cc1` [Example 10, 2,2-bis(4-methoxyphenyl)-5-diphenylmethylol-6-hydroxy-2H-naphtho[1,2-b]pyran] as the compound, how does the “ΔOD@ SATURATION” value [1] read?
A: Its value is 0.32.

Q: And the “ΔOD/MIN SENSITIVITY” value [1]?
A: The value was 0.05.

Q: And the “LAMBDA MAX (VISIBLE)” value [2]?
A: Its value is 482 nm.
